For series [1] the following is noted: pH 7.4.
Series [2] addresses T1, p120RasGAP N-terminal SH2 domain (residues 174-280, C236S, C261S) (UniProt P20936 174-280, C236S | C261S).
T1 sequence (looked up): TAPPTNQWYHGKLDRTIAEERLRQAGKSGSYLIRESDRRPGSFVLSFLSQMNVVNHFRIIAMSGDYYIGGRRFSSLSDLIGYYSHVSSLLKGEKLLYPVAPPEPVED
Nature of the series: co-crystallisation.

Non-standard residues stand in square brackets, D forms with d. No end group written: not given here. pY = N[C@@H](Cc1ccc(OP(=O)(O)O)cc1)C(=O)O

On to D[pY]AEPMDA [pY-1087], for which, in series [1], the “Maximum Solubility” value is 10000 µg/mL.

B1: p190RhoGAP pTyr-1105 phosphopeptide (residues 1100-1112) (peptide)
peptide: Ac-EEENI[pY]SVPHDST-NH2
SMILES: CC[C@H](C)[C@H](NC(=O)[C@H](CC(N)=O)NC(=O)[C@H](CCC(=O)O)NC(=O)[C@H](CCC(=O)O)NC(=O)[C@H](CCC(=O)O)NC(C)=O)C(=O)N[C@@H](Cc1ccc(OP(=O)(O)O)cc1)C(=O)N[C@@H](CO)C(=O)N[C@H](C(=O)N1CCC[C@H]1C(=O)N[C@@H](Cc1c[nH]cn1)C(=O)N[C@@H](CC(=O)O)C(=O)N[C@@H](CO)C(=O)N[C@H](C(N)=O)[C@@H](C)O)C(C)C
Turning to B1, in series [2], the binding result was “binds”.

The values are drawn from PMC11059313 (Methods in molecular biology (Clifton, N.J.), 2023).
